Data: patent US6541486B1, “Bis-benzimidazole compounds and analogs thereof for inhibiting cell death” (Elan Pharma International Ltd., priority 1999, dated 2003)

Experiments:
[1] = tested on: OGD cells (retinal ganglion cells); assay: Increase in survival of OGD cells at fixed concentrations (similar assay); format: cell-based, rat; set-up: key: +: up to 50% increase; ++: 50%-100% increase; +++: >100% increase; —: negligible or no increase
[2] = tested on: Oxygen/Glucose Deprived RGCs (retinal ganglion cells); assay: Protection of oxygen/glucose deprived (OGD) retinal ganglion cells, EC50; conditions: overall judgement
Description: Each compound was added to control cells and to cells deprived of oxygen and glucose for the time period from 30 minutes prior to OGD, during OGD, and for 24 and 48 hours after OGD.
RGCs from postnatal day 8 (P8) Sprague-Dawley rats were purified as previously described (Barres et al., 1988; Meyer-Franke et al., 1995). Purified retinal ganglion cells were plated onto tissue culture plastic precoated with poly-D-lysine and merosin, and cultured in serum-free Neurobasal medium (Gibco) containing various supplements.
Approximately 5,000 purified RGCs were cultured in 96-well plates (Falcon), precoated with poly-D-lysine (PDL, 70 kD, 10 mg/ml; Sigma) and merosin (2 mg/ml; Gibco). The RGCs were cultured in serum-free Neurobasal medium (Brewer et al., 1993; Gibco) containing Sato-Bottenstein and B27 (Gibco) supplement, insulin (Sigma, 5 mg/ml), brain-derived neurotrophic factor (BDNF, 25 ng/ml; Preprotech), ciliary neurotrophic factor (CNTF, 20 ng/ml; Preprotech) and forskolin (10 mM, Sigma). The percentage of surviving cells was assessed at 3, 7, and 14 days by the MTT assay.
Retinal ganglion cells were grown in 96-well plates for 5 days in serum-free medium as described above. On the sixth day cells were washed three times in a salt solution, e.g. Earle's balanced salt solution (EBSS, Gibco), containing glucose for control cells, and lacking glucose for test cells (oxygen/glucose-deprived cells). Control cells were further incubated in a 5% CO2 incubator while OGD cells were deprived of oxygen in an anaerobic chamber (for 3 hours). Test compounds were added to control cells and OGD cells for the time period from 30 minutes prior to OGD, during OGD, and for 24 and 48 hours after OGD.
After 3 hours OGD, control and test cells were transferred to growth medium with glucose and cultured an additional 48 hours in a 5% CO2 incubator, followed by a determination of cell viability using MTT, propidium iodide and annexin assays.
For the cell viability assay, MTT was added to culture and incubated at 37° C. for 1 hr. […] Viable and dead cells are counted by bright field microscopy at various times, e.g. 24, 48, or 72 hours after oxygen/glucose and/or growth factor deprivation. All values are reported as the mean (average) +/− the standard error of the mean (SEM) for at least three replicate cultures.

c1ccc2[nH]c(Cc3nc4ccccc4[nH]3)nc2c1 [SNX 857]
Percent Increase in Survival over OGD Control Cells ([1]; Concn 0.01 μM): + (up to 50% increase) | Percent Increase in Survival over OGD Control Cells ([1]; Concn 0.1 μM): +++ (>100% increase) | Percent Increase in Survival over OGD Control Cells ([1]; Concn 10 μM): +++ (>100% increase) | Percent Increase in Survival over OGD Control Cells ([1]; Concn .1 μM): ++ (50%-100% increase)

O=[N+]([O-])c1ccc2[nH]c(Cc3nc4ccc([N+](=O)[O-])cc4[nH]3)nc2c1 [SNX 897, 5,5′-dinitro*]
Percent Increase in Survival over OGD Control Cells ([1]; Concn 0.01 μM): ++ (50%-100% increase) | Percent Increase in Survival over OGD Control Cells ([1]; Concn 0.1 μM): ++ (50%-100% increase) | Percent Increase in Survival over OGD Control Cells ([1]; Concn 1 μM): ++ (50%-100% increase)

Nc1ccc2[nH]c(Cc3nc4ccc(N)cc4[nH]3)nc2c1 [SNX 898, 5,5′-diamino*]
Percent Increase in Survival over OGD Control Cells ([1]; Concn 0.01 μM): + (up to 50% increase) | Percent Increase in Survival over OGD Control Cells ([1]; Concn 0.1 μM): + (up to 50% increase) | Percent Increase in Survival over OGD Control Cells ([1]; Concn 1 μM): + (up to 50% increase) | Percent Increase in Survival over OGD Control Cells ([1]; Concn 10 μM): —

Clc1ccc2[nH]c(Cc3nc4ccccc4[nH]3)nc2c1 [SNX 899, 5-chloro*]
Percent Increase in Survival over OGD Control Cells ([1]; Concn 0.01 μM): + (up to 50% increase) | Percent Increase in Survival over OGD Control Cells ([1]; Concn 0.1 μM): ++ (50%-100% increase) | Percent Increase in Survival over OGD Control Cells ([1]; Concn 1 μM): ++ (50%-100% increase) | Percent Increase in Survival over OGD Control Cells ([1]; Concn 10 μM): + (up to 50% increase) | Percent Increase in Survival over OGD Control Cells ([1]; Concn .1 μM): ++ (50%-100% increase)

O=[N+]([O-])c1cccc2[nH]c(Cc3nc4ccccc4[nH]3)nc12 [SNX 900, 2-(1H-benzimidazol-2-ylmethyl)4-nitro-1H-benzimidazole]
Percent Increase in Survival over OGD Control Cells ([1]; Concn 0.01 μM): ++ (50%-100% increase) | Percent Increase in Survival over OGD Control Cells ([1]; Concn 0.1 μM): +++ (>100% increase) | Percent Increase in Survival over OGD Control Cells ([1]; Concn 10 μM): + (up to 50% increase) | Percent Increase in Survival over OGD Control Cells ([1]; Concn .1 μM): ++ (50%-100% increase) | Effectiveness in protecting OGD RGCs (in words, from Tables 5 and 6) [2]: more effective overall than the unsubstituted compound

O=[N+]([O-])c1cccc2[nH]c(Cc3nc4c([N+](=O)[O-])cccc4[nH]3)nc12 [SNX 901, 4,4′-dinitro*]
Percent Increase in Survival over OGD Control Cells ([1]; Concn 0.01 μM): ++ (50%-100% increase) | Percent Increase in Survival over OGD Control Cells ([1]; Concn 0.1 μM): ++ (50%-100% increase) | Percent Increase in Survival over OGD Control Cells ([1]; Concn 10 μM): +++ (>100% increase) | Percent Increase in Survival over OGD Control Cells ([1]; Concn .1 μM): +++ (>100% increase) | Effectiveness in protecting OGD RGCs (in words, from Tables 5 and 6) [2]: more effective overall than the unsubstituted compound

Nc1cccc2[nH]c(Cc3nc4c(N)cccc4[nH]3)nc12 [SNX 903, 4,4′-diamino*]
Percent Increase in Survival over OGD Control Cells ([1]; Concn 0.01 μM): +++ (>100% increase) | Percent Increase in Survival over OGD Control Cells ([1]; Concn 0.1 μM): +++ (>100% increase) | Percent Increase in Survival over OGD Control Cells ([1]; Concn 10 μM): ++ (50%-100% increase) | Percent Increase in Survival over OGD Control Cells ([1]; Concn .1 μM): +++ (>100% increase) | Effectiveness in protecting OGD RGCs (in words, from Tables 5 and 6) [2]: more effective overall than the unsubstituted compound

Oc1cccc2[nH]c(Cc3nc4c(O)cccc4[nH]3)nc12 [SNX 909, 4,4′-dihydroxyl*]
Percent Increase in Survival over OGD Control Cells ([1]; Concn 0.01 μM): + (up to 50% increase) | Percent Increase in Survival over OGD Control Cells ([1]; Concn 0.1 μM): ++ (50%-100% increase) | Percent Increase in Survival over OGD Control Cells ([1]; Concn 10 μM): + (up to 50% increase) | Percent Increase in Survival over OGD Control Cells ([1]; Concn .1 μM): +++ (>100% increase) | Effectiveness in protecting OGD RGCs (in words, from Tables 5 and 6) [2]: more effective overall than the unsubstituted compound

Cn1c(Cc2nc3ccccc3n2C)nc2ccccc21 [SNX 910, 1,1′-dimethyl*]
Percent Increase in Survival over OGD Control Cells ([1]; Concn 0.01 μM): ++ (50%-100% increase) | Percent Increase in Survival over OGD Control Cells ([1]; Concn 0.1 μM): ++ (50%-100% increase) | Percent Increase in Survival over OGD Control Cells ([1]; Concn 10 μM): + (up to 50% increase) | Percent Increase in Survival over OGD Control Cells ([1]; Concn .1 μM): +++ (>100% increase)

c1cnc2[nH]c(Cc3nc4cccnc4[nH]3)nc2c1 [SNX 911, 2,2′-methylenebis(4-azabenzimidazole)]
Effectiveness in protecting OGD RGCs (in words, from Tables 5 and 6) [2]: very effective

Nc1cccc2[nH]c(Cc3nc4cc(Cl)ccc4[nH]3)nc12 [SNX 923, 2-[(5-Chloro-1H-benzimidazol-2-yl)methyl]-1H-benzimidazol-4-amine]
Percent Increase in Survival over OGD Control Cells ([1]; Concn 0.001 μM): +++ (>100% increase) | Percent Increase in Survival over OGD Control Cells ([1]; Concn 0.01 μM): +++ (>100% increase) | Percent Increase in Survival over OGD Control Cells ([1]; Concn 0.1 μM): +++ (>100% increase) | Percent Increase in Survival over OGD Control Cells ([1]; Concn 1 μM): +++ (>100% increase) | Percent Increase in Survival over OGD Control Cells ([1]; Concn 10 μM): +++ (>100% increase) | Effectiveness in protecting OGD RGCs (in words, from Tables 5 and 6) [2]: more effective overall than the unsubstituted compound

CC(c1nc2ccccc2[nH]1)c1nc2ccccc2[nH]1 [SNX 925, 2,2′-ethylidenebisbenzimidazole]
Percent Increase in Survival over OGD Control Cells ([1]; Concn 0.001 μM): ++ (50%-100% increase) | Percent Increase in Survival over OGD Control Cells ([1]; Concn 0.01 μM): +++ (>100% increase) | Percent Increase in Survival over OGD Control Cells ([1]; Concn 0.1 μM): +++ (>100% increase) | Percent Increase in Survival over OGD Control Cells ([1]; Concn 1 μM): +++ (>100% increase) | Percent Increase in Survival over OGD Control Cells ([1]; Concn 10 μM): +++ (>100% increase) | Effectiveness in protecting OGD RGCs (in words, from Tables 5 and 6) [2]: very effective

Fc1cccc2[nH]c(Cc3nc4c(F)cccc4[nH]3)nc12 [SNX 930, 4,4′-difluoro*]
Percent Increase in Survival over OGD Control Cells ([1]; Concn 0.001 μM): + (up to 50% increase) | Percent Increase in Survival over OGD Control Cells ([1]; Concn 0.01 μM): +++ (>100% increase) | Percent Increase in Survival over OGD Control Cells ([1]; Concn 0.1 μM): + (up to 50% increase) | Percent Increase in Survival over OGD Control Cells ([1]; Concn 1 μM): ++ (50%-100% increase) | Percent Increase in Survival over OGD Control Cells ([1]; Concn 10 μM): ++ (50%-100% increase) | Effectiveness in protecting OGD RGCs (in words, from Tables 5 and 6) [2]: more effective overall than the unsubstituted compound

N#Cc1ccc2[nH]c(Cc3nc4ccc(C#N)cc4[nH]3)nc2c1 [SNX 931, 5,5′-dicyano*]
Percent Increase in Survival over OGD Control Cells ([1]; Concn 0.001 μM): — | Percent Increase in Survival over OGD Control Cells ([1]; Concn 0.01 μM): + (up to 50% increase) | Percent Increase in Survival over OGD Control Cells ([1]; Concn 0.1 μM): + (up to 50% increase) | Percent Increase in Survival over OGD Control Cells ([1]; Concn 1 μM): — | Percent Increase in Survival over OGD Control Cells ([1]; Concn 10 μM): ++ (50%-100% increase)

Cc1nc(-c2nc(C)c(C)[nH]2)[nH]c1C [SNX 939, 2,2′-bis(4,5-dimethylimidazole)]
Effectiveness in protecting OGD RGCs (in words, from Tables 5 and 6) [2]: very effective

NC(c1ncc[nH]1)c1ncc[nH]1 [SNX 949, 2,2′-(aminomethylene)bisimidazole]
Effectiveness in protecting OGD RGCs (in words, from Tables 5 and 6) [2]: very effective

O=C(c1ncc[nH]1)c1ncc[nH]1 [SNX 951, di(imidazol-2-yl)methanone]
Effectiveness in protecting OGD RGCs (in words, from Tables 5 and 6) [2]: very effective

c1ccc2[nH]c(CC3=NCCN3)nc2c1 [SNX 978, 2-(4,5-dihydroimidazol-2-yl)methyl benzimidazole]
Effectiveness in protecting OGD RGCs (in words, from Tables 5 and 6) [2]: very effective

c1ccc(CN2CCN=C2Cc2nc3ccccc3[nH]2)cc1 [SNX 979, 2-(1-benzyl-4,5-dihydroimidazol-2-yl)methyl benzimidazole]
Effectiveness in protecting OGD RGCs (in words, from Tables 5 and 6) [2]: very effective

CN1CC[N+](C)=C1Cc1nc2ccccc2[nH]1 [SNX 980, 2-(1,3-Dimethyl-4,5-dihydro-1H-imidazol-2-ylmethyl)-1H-benzimidazole]
Effectiveness in protecting OGD RGCs (in words, from Tables 5 and 6) [2]: very effective

CN1CCN=C1Cc1nc2ccccc2[nH]1 [SNX 1019, 2-(1-methyl-4,5-dihydroimidazol-2-yl)methyl benzimidazole]
Effectiveness in protecting OGD RGCs (in words, from Tables 5 and 6) [2]: very effective

CC1(C)CN=C(Cc2nc3ccccc3[nH]2)N1 [SNX 1020, 2-(5,5-Dimethyl-4,5-dihydro-1H-imidazol-2-ylmethyl)-1H-benzimidazole]
Effectiveness in protecting OGD RGCs (in words, from Tables 5 and 6) [2]: very effective

CN1CCN=C1CCc1nc2ccccc2n1C [SNX 1771]
Effectiveness in protecting OGD RGCs (in words, from Tables 5 and 6) [2]: very effective

c1ccc2[nH]c(CC3=NCCCN3)nc2c1 [SNX 1818, 2-(3,4,5,6-tetrahydropyrimidin-2-yl)methyl benzimidazole]
Effectiveness in protecting OGD RGCs (in words, from Tables 5 and 6) [2]: very effective

c1ccc2[nH]c(CC3=NCCCCN3)nc2c1 [SNX 1819, 2-(4,5,6,7-tetrahydro-1,3-diazepin-2-yl)methyl benzimidazole]
Effectiveness in protecting OGD RGCs (in words, from Tables 5 and 6) [2]: very effective
